Experimental data published in PubChem BioAssay AID256 (DTP/NCI, 2004).
“And” between values parts separate entries of the source, which are not always exact repeats. Equal entries are not always repeated. Inconclusive results and toxic doses are left out. The calls were made as follows: active = survival T/C of 150% or more; inactive = T/C below 125% in these data.

Test system: CD2F1 mice, L1210 leukemia ip, survival T/C
Test: NCI In Vivo Anticancer Drug Screen. Data for tumor model L1210 Leukemia (intraperitoneal) in CD2F1 (CDF1) mice
Conditions: higher = longer survival
Procedure, shortened: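 Vehicle-treated tumor-bearing mice served as controls (C) for compound-treated mice (T). Reported figure is T divided by C.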

[1] = endpoint: mean survival time, dose: 50.0 mg/kg/injection, schedule: Q04DX002 (ip), vehicle: saline with Tween-80
[2] = endpoint: mean survival time, dose: 100.0 mg/kg/injection, schedule: Q04DX002 (ip), vehicle: saline with Tween-80
[3] = endpoint: mean survival time, dose: 25.0 mg/kg/injection, schedule: Q01DX009 (ip), vehicle: saline with Tween-80
[4] = endpoint: mean survival time, dose: 25.0 mg/kg/injection, schedule: Q04DX002 (ip), vehicle: saline with Tween-80
[5] = endpoint: mean survival time, dose: 50.0 mg/kg/injection, schedule: Q01DX009 (ip), vehicle: saline with Tween-80
[6] = endpoint: mean survival time, dose: 100.0 mg/kg/injection, schedule: Q01DX009 (ip), vehicle: saline with Tween-80
[7] = endpoint: mean survival time, dose: 100.0 mg/kg/injection, schedule: Q04DX003 (ip), vehicle: saline with Tween-80
[8] = endpoint: mean survival time, dose: 200.0 mg/kg/injection, schedule: Q04DX003 (ip), vehicle: saline with Tween-80
[9] = endpoint: mean survival time, dose: 400.0 mg/kg/injection, schedule: Q04DX003 (ip), vehicle: saline with Tween-80
[10] = endpoint: mean survival time, dose: 100.0 mg/kg/injection, schedule: Q04DX003 (ip), vehicle: saline
[11] = endpoint: mean survival time, dose: 100.0 mg/kg/injection, schedule: Q01DX001 (ip), vehicle: saline
[12] = endpoint: mean survival time, dose: 200.0 mg/kg/injection, schedule: Q01DX001 (ip), vehicle: saline
[13] = endpoint: mean survival time, dose: 200.0 mg/kg/injection, schedule: Q01DX009 (ip), vehicle: saline with Tween-80
[14] = endpoint: mean survival time, dose: 400.0 mg/kg/injection, schedule: Q01DX009 (ip), vehicle: saline with Tween-80

Measured: T/C

CCOC(=O)NC1=C(N2CC2)C(=O)C(NC(=O)OCC)=C(N2CC2)C1=O
inactive: endpoint: mean survival time, dose: 1.25 mg/kg/injection, schedule: Q01DX009 (oral), vehicle: other 87 % of control | endpoint: mean survival time, dose: 1.25 mg/kg/injection, schedule: Q01DX009 (oral), vehicle: saline 98 % of control | endpoint: mean survival time, dose: 2.5 mg/kg/injection, schedule: Q01DX009 (oral), vehicle: other 97 % of control | endpoint: mean survival time, dose: 2.5 mg/kg/injection, schedule: Q01DX009 (oral), vehicle: saline 94 % of control | endpoint: mean survival time, dose: 4.0 mg/kg/injection, schedule: Q01DX009 (sc), vehicle: other 93 % of control | endpoint: mean survival time, dose: 10.0 mg/kg/injection, schedule: Q01DX009 (oral), vehicle: other 95 % of control | endpoint: mean survival time, dose: 16.0 mg/kg/injection, schedule: Q04DX003 (ip), vehicle: other 90 % of control | endpoint: mean survival time, dose: 20.0 mg/kg/injection, schedule: Q01DX009 (oral), vehicle: other 87 % of control | endpoint: median survival time, dose: 0.25 mg/kg/injection, schedule: Q01DX009 (ip), vehicle: saline with Tween-80 97 % of control | endpoint: median survival time, dose: 0.5 mg/kg/injection, schedule: Q01DX009 (ip), vehicle: saline with Tween-80 110 % of control | endpoint: median survival time, dose: 1.0 mg/kg/injection, schedule: Q08DX002 (ip), vehicle: saline with Tween-80 110 % of control | endpoint: median survival time, dose: 4.0 mg/kg/injection, schedule: Q01DX009 (ip), vehicle: saline with Tween-80 90 % of control

CSc1ccc(OC(=O)C(C)NC(=O)C(CO)NC(=O)OCc2ccccc2)cc1 (stereo not drawn)
inactive: [1] 95 % of control | [2] 92 % of control | endpoint: mean survival time, dose: 200.0 mg/kg/injection, schedule: Q04DX002 (ip), vehicle: saline with Tween-80 95 % of control | endpoint: mean survival time, dose: 400.0 mg/kg/injection, schedule: Q04DX002 (ip), vehicle: saline with Tween-80 92 % of control

CP1(=S)CCC(O)(c2ccccc2)CC1 (stereo not drawn)
inactive: [3] 101 % of control | [4] 91 % of control | [5] 89 % of control | [1] 91 % of control | [6] 97 % of control | [2] 95 % of control

NC1CC(=O)C(CC2C(=O)CC(N)CC2=O)C(=O)C1 (stereo not drawn)
inactive: [7] 102 % of control | [8] 101 % of control | [9] 98 % of control

CCCCCCCC(=O)N1CCCN(C(=O)CCCCCCC)C1
inactive: endpoint: mean survival time, dose: 25.0 mg/kg/injection, schedule: Q04DX003 (ip), vehicle: saline 94 % of control | endpoint: mean survival time, dose: 50.0 mg/kg/injection, schedule: Q04DX003 (ip), vehicle: saline 95 % of control | [10] 97 % of control

COc1ccc(CCl)cc1CCl
inactive: [7] 102 % of control | [8] 91 % of control

C/C(=C\c1ccc(Cl)c(Cl)c1)[N+](=O)[O-]
inactive: [11] 104 % of control | [12] 109 % of control | endpoint: mean survival time, dose: 400.0 mg/kg/injection, schedule: Q01DX001 (ip), vehicle: saline 111 % of control

Nn1cnnc1
inactive: [11] 98 % of control | [12] 93 % of control

C(=N\N=C\c1ccco1)/c1ccco1
inactive: endpoint: mean survival time, dose: 25.0 mg/kg/injection, schedule: Q01DX001 (ip), vehicle: saline with Tween-80 87 % of control | endpoint: mean survival time, dose: 50.0 mg/kg/injection, schedule: Q01DX001 (ip), vehicle: saline with Tween-80 97 % of control | endpoint: mean survival time, dose: 100.0 mg/kg/injection, schedule: Q01DX001 (ip), vehicle: saline with Tween-80 100 % of control | [7] 97 % of control | [8] 101 % of control

O=C(O)C(C(=O)O)=C(C(=O)c1ccccc1)c1ccccc1
inactive: endpoint: mean survival time, dose: 100.0 mg/kg/injection, schedule: Q01DX009 (ip), vehicle: other 95 % of control | endpoint: mean survival time, dose: 200.0 mg/kg/injection, schedule: Q01DX009 (ip), vehicle: other 100 % of control | endpoint: mean survival time, dose: 400.0 mg/kg/injection, schedule: Q01DX009 (ip), vehicle: other 95 % of control

CCCCCCCCCCCCCCCCCC[N+](CCO)(CCO)Cc1ccc(C[N+](CCO)(CCO)CCCCCCCCCCCCCCCCCC)cc1
inactive: endpoint: mean survival time, dose: 12.5 mg/kg/injection, schedule: Q04DX002 (ip), vehicle: saline with Tween-80 101 % of control | [4] 101 % of control | [1] 89 % of control

C[CH2][Ge]([CH2]C)[CH2]C.C[CH2][Ge]([CH2]C)[CH2]C.C[CH2][Ge]([CH2]C)[O][Ge]([CH2]C)[CH2]C
inactive: endpoint: mean survival time, dose: 6.25 mg/kg/injection, schedule: Q01DX009 (ip), vehicle: saline with Tween-80 97 % of control and 106 % of control | endpoint: mean survival time, dose: 12.5 mg/kg/injection, schedule: Q01DX009 (ip), vehicle: saline with Tween-80 96 % of control and 104 % of control | [3] 97 % of control and 112 % of control | [5] 104 % of control and 112 % of control | [6] 109 % of control

COc1ccc(OCCOC(=O)Nc2ccc(Cl)cc2OC)cc1
inactive: [5] 89 % of control | [6] 93 % of control | [13] 93 % of control

CCOC(=O)c1c[nH]c2ccc([N+](=O)[O-])cc2c1=O
inactive: endpoint: mean survival time, dose: 100.0 mg/kg/injection, schedule: Q01DX001 (ip), vehicle: Klucel (hydroxypropylcellulose) (HPC) 111 % of control | [6] 97 % of control | [7] 90 % of control | endpoint: mean survival time, dose: 200.0 mg/kg/injection, schedule: Q01DX001 (ip), vehicle: Klucel (hydroxypropylcellulose) (HPC) 96 % of control | [13] 100 % of control | [8] 91 % of control | endpoint: mean survival time, dose: 400.0 mg/kg/injection, schedule: Q01DX001 (ip), vehicle: Klucel (hydroxypropylcellulose) (HPC) 100 % of control | [14] 94 % of control | [9] 88 % of control

CO[C@@]12[C@@H]3N[C@@H]3CN1C1=C(C(=O)C(NCCN3CCOCC3)=C(C)C1=O)[C@@H]2COC(N)=O
inactive: endpoint: mean survival time, dose: 1.5 mg/kg/injection, schedule: Q01DX001 (ip), vehicle: water 100 % of control | endpoint: mean survival time, dose: 3.0 mg/kg/injection, schedule: Q01DX001 (ip), vehicle: water 101 % of control | endpoint: mean survival time, dose: 6.0 mg/kg/injection, schedule: Q01DX001 (ip), vehicle: water 105 % of control | endpoint: mean survival time, dose: 12.0 mg/kg/injection, schedule: Q01DX001 (ip), vehicle: water 106 % of control | endpoint: mean survival time, dose: 24.0 mg/kg/injection, schedule: Q01DX001 (ip), vehicle: water 103 % of control

Cc1nc2c(c[n+]1C)CN1C=Nc3c(ncn3C3OC(CO)C(O)C3O)C1=N2 (stereo not drawn)
inactive: endpoint: median survival time, dose: 12.5 mg/kg/injection, schedule: Q01DX005 (ip), vehicle: saline 98 % of control | endpoint: median survival time, dose: 25.0 mg/kg/injection, schedule: Q01DX005 (ip), vehicle: saline 100 % of control | endpoint: median survival time, dose: 50.0 mg/kg/injection, schedule: Q01DX005 (ip), vehicle: saline 100 % of control | endpoint: median survival time, dose: 100.0 mg/kg/injection, schedule: Q01DX005 (ip), vehicle: saline 100 % of control | endpoint: median survival time, dose: 200.0 mg/kg/injection, schedule: Q01DX005 (ip), vehicle: saline 100 % of control

[Cl][Gd]([Cl])[Cl]
inactive: [6] 92 % of control | [13] 94 % of control

c1cc[c]([Ge]([O][Ge]([c]2ccccc2)([c]2ccccc2)[c]2ccccc2)([c]2ccccc2)[c]2ccccc2)cc1
inactive: endpoint: mean survival time, dose: 50.0 mg/kg/injection, schedule: Q04DX003 (ip), vehicle: Klucel (hydroxypropylcellulose) (HPC) 96 % of control | endpoint: mean survival time, dose: 100.0 mg/kg/injection, schedule: Q04DX003 (ip), vehicle: Klucel (hydroxypropylcellulose) (HPC) 96 % of control | endpoint: mean survival time, dose: 200.0 mg/kg/injection, schedule: Q04DX003 (ip), vehicle: Klucel (hydroxypropylcellulose) (HPC) 96 % of control

CCCCCCC[CH2][Sn]([CH2]CCCCCCC)([NH]S(=O)(=O)c1ccc(C)cc1)[NH]S(=O)(=O)c1ccc(C)cc1
inactive: endpoint: mean survival time, dose: 75.0 mg/kg/injection, schedule: Q01DX001 (ip), vehicle: other 113 % of control | endpoint: mean survival time, dose: 150.0 mg/kg/injection, schedule: Q01DX001 (ip), vehicle: other 107 % of control

C[Si]1(C)N(c2ccccc2)[Si](C)(C)N(c2ccccc2)[Si](C)(C)N1c1ccccc1
inactive: [6] 105 % of control | [7] 105 % of control | [13] 107 % of control | [8] 94 % of control | [14] 106 % of control | [9] 93 % of control

C[C@]12CCCC[C@@H]1CC[C@@H]1[C@@H]2CC[C@]2(C)C(=O)CC[C@@H]12
inactive: [7] 92 % of control | [8] 91 % of control | [9] 89 % of control

CC1(C)COC(Cc2ccccc2Br)=N1
inactive: [10] 101 % of control | endpoint: mean survival time, dose: 200.0 mg/kg/injection, schedule: Q04DX003 (ip), vehicle: saline 93 % of control | endpoint: mean survival time, dose: 400.0 mg/kg/injection, schedule: Q04DX003 (ip), vehicle: saline 93 % of control

CC1=NN(c2ccccc2)C(=O)C1CC1C(=O)N(c2ccccc2)N=C1C (stereo not drawn)
inactive: [6] 101 % of control | [7] 96 % of control | [13] 107 % of control | [8] 92 % of control | [14] 101 % of control | [9] 88 % of control
